Measured values taken from the supplement of paper PMC4862054.

Legend:
[1] = tested on: CAL-148; assay: drug sensitivity score (DSS), CellTox Green (DSS (AUC-based score)); higher = stronger drug effect (viability inhibition or cytotoxicity); extreme values may be limits of the assay; details: incubation time: 72 h
Outline: (§1)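 The drug sensitivity score was computed from the area under the fitted dose-response curve. Breast cancer cell lines in 20 µl suspension went into 384-well plates holding compound at 5 concentrations (10-fold steps over a 10,000-fold, compound-specific range) for 72 h of incubation. CellTox Green fluorescence (485/520 nm) was read before CellTiter-Glo luminescence, the latter after 10 min at room temperature, and each plate was normalised to 0.1 % DMSO and a positive kill control.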

[2] = tested on: CAL-85-1; assay: as above; details: incubation time: 72 h
Outline: as §1

[3] = tested on: BT-474; assay: as above; details: incubation time: 72 h
Outline: as §1

[4] = tested on: HCC1937; assay: as above; details: incubation time: 72 h
Outline: as §1

[5] = tested on: Hs578T; assay: as above; details: incubation time: 72 h
Outline: as §1

[6] = tested on: HCC1143; assay: as above; details: incubation time: 72 h
Outline: as §1

[7] = tested on: MDA-MB-231; assay: as above; details: incubation time: 72 h
Outline: as §1

[8] = tested on: MDA-MB-453; assay: normalised viability (% of control), CellTiter-Blue; higher = more viable cells (about 100 = DMSO control); details: incubation time: 72 h
Outline: (§2)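 384-well plates were pre-loaded with compound in 5 µl medium before 20 µl of breast cancer cell suspension was seeded. Following 72 h incubation, 2.5 µl CellTiter-Blue reagent was added for 2 h at 37 °C. Fluorescence was read at 560/590 nm and plates were normalised to vehicle (100) and a positive kill control (0), checked by Z'-factor. Normalised viability is reported at a single listed concentration of the series.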

[9] = tested on: MDA-MB-436; assay: as above; details: incubation time: 72 h
Outline: as §2

[10] = tested on: DU-4475; assay: as above; details: incubation time: 72 h
Outline: as §2

[11] = tested on: BT-549; assay: as above; details: incubation time: 72 h
Outline: as §2

[12] = tested on: HCC1599; assay: normalised viability (% of control), CellTiter-Blue; higher = more viable cells (about 100 = DMSO control); details: 100 nM; incubation time: 72 h
Experimental: (§3)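 DSRT, CellTiter-Blue viability, 72 h incubation. Signal is normalised to DMSO and benzethonium chloride controls. Value is the normalised response at dose 3.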

[13] = tested on: MDA-MB-453; assay: as above; details: 10 nM; incubation time: 72 h
Experimental: as §3

[14] = tested on: MDA-MB-436; assay: as above; details: 100 nM; incubation time: 72 h
Experimental: as §3

[15] = tested on: SK-BR-3; assay: as above; details: 100 nM; incubation time: 72 h
Experimental: as §3

[16] = tested on: CAL-148; assay: as above; details: 10 nM; incubation time: 72 h
Experimental: as §3

[17] = tested on: MDA-MB-468; assay: as above; details: 100 nM; incubation time: 72 h
Experimental: as §3

[18] = tested on: CAL-85-1; assay: as above; details: 10 nM; incubation time: 72 h
Experimental: as §3

[19] = tested on: BT-474; assay: as above; details: 100 nM; incubation time: 72 h
Experimental: as §3

[20] = tested on: MFM-223; assay: as above; details: 100 nM; incubation time: 72 h
Experimental: as §3

[21] = tested on: HCC1937; assay: as above; details: 100 nM; incubation time: 72 h
Experimental: as §3

[22] = tested on: CAL-120; assay: as above; details: 100 nM; incubation time: 72 h
Experimental: as §3

[23] = tested on: DU-4475; assay: as above; details: 10 nM; incubation time: 72 h
Experimental: as §3

[24] = tested on: CAL-51; assay: as above; details: 10 nM; incubation time: 72 h
Experimental: as §3

[25] = tested on: BT-549; assay: as above; details: 100 nM; incubation time: 72 h
Experimental: as §3

[26] = tested on: Hs578T; assay: as above; details: 100 nM; incubation time: 72 h
Experimental: as §3

[27] = tested on: HCC1143; assay: as above; details: 100 nM; incubation time: 72 h
Experimental: as §3

[28] = tested on: MDA-MB-231; assay: as above; details: 100 nM; incubation time: 72 h
Experimental: as §3

[29] = tested on: HDQ-P1; assay: as above; details: 10 nM; incubation time: 72 h
Experimental: as §3

Row | SMILES | drug sensitivity score [1] | drug sensitivity score [2] | drug sensitivity score [3] | drug sensitivity score [4] | drug sensitivity score [5] | drug sensitivity score [6] | drug sensitivity score [7] | normalised viability ([8]; 3 nM) | normalised viability ([8]; 30 nM) | normalised viability ([8]; 100 nM) | normalised viability ([9]; 10 nM) | normalised viability ([9]; 1000 nM) | normalised viability ([9]; 10000 nM) | normalised viability ([10]; 3 nM) | normalised viability ([10]; 30 nM) | normalised viability ([10]; 100 nM) | normalised viability ([11]; 10 nM) | normalised viability ([11]; 1000 nM) | normalised viability ([11]; 10000 nM) | normalised viability [12] | normalised viability [13] | normalised viability [14] | normalised viability [15] | normalised viability [16] | normalised viability [17] | normalised viability [18] | normalised viability [19] | normalised viability [20] | normalised viability [21] | normalised viability [22] | normalised viability [23] | normalised viability [24] | normalised viability [25] | normalised viability [26] | normalised viability [27] | normalised viability [28] | normalised viability [29]
1 | CCCCCCCCCCCCCCCCCCOP(=O)([O-])OC1CC[N+](C)(C)CC1 [Perifosine] | 0 | 0 | 0 | 0 | 0 | 0 | 0 |  |  |  |  |  |  |  |  |  |  |  |  |  |  |  |  |  |  |  |  |  |  |  |  |  |  |  |  |  | 
2 | C=C(c1ccc(C(=O)O)cc1)c1cc2c(cc1C)C(C)(C)CCC2(C)C [Bexarotene] | 0 | 0 | 0 | 0 |  | 0 | 0 | 91% | 91.3% | 74.5% | 90.1% | 97.2% | 81% | 98.7% | 102% | 103% | 89.5% | 75.6% | 74.5% | 88% | 92% | 77.2% | 82.6% | 101% | 108% | 97% | 102% | 87.4% | 93.5% | 104% | 110% | 84.7% | 73.2% | 70.7% | 115% | 80.5% | 86.4%
3 | O=P1(NCCCl)OCCCN1CCCl (stereo unspecified) [Ifosfamide] | 0 | 0 | 0 |  | 0 | 0 | 1.11 | 132% | 87.3% | 106% | 96.6% | 109% | 102% | 88.5% | 101% | 81.9% | 79.4% | 90.8% | 96.7% | 108% | 99.8% | 95.3% | 70.5% | 92.2% | 98.7% | 95.5% | 120% | 81.2% | 107% | 91.2% | 110% | 107% | 115% | 94.9% | 83.4% | 108% | 125%
4 | NC(=O)Nc1cc(-c2cccc(F)c2)sc1C(=O)N[C@H]1CCCNC1 [AZD7762] | 0 | 12.9 | 0 | 0 | 17.4 | 0 | 0.946 |  |  |  |  |  |  |  |  |  |  |  |  |  |  |  |  |  |  |  |  |  |  |  |  |  |  |  |  |  | 
